In patent US20250250229A1, “ARYLTHIO DERIVATIVES WITH PHARMACOLOGICAL ACTIVITY” (IRIDEA S.R.L., priority 2022, published 2025):

Columns and labels:
[1] = tested on: neutrophil and macrophage recruitment; assay: In vivo anti-inflammatory activity test, P. aeruginosa RP73 lung infection, BALF cell analysis; design: species or system C57Bl/6N mice; details: 12 mg/kg subcutaneous daily, BALF six days after infection, compared with carrier only
Description: In Vivo Anti-Inflammatory Activity Test Immunocompetent C57Bl/6N male mice (8-10 weeks) were infected with strains of P. aeruginosa RP73 (4-6×10^5 CFU, Colony Forming Units), incorporated in agar microbeads. The microbeads were prepared by following the procedures described in the literature (Bayes H K, Ritchie N, Irvine S, Evans T J. A murine model of early Pseudomonas aeruginosa lung disease with transition to chronic infection. Sci Rep. 2016 Nov. 2; 6:35838. doi: 10.1038/srep35838), and they were administered to the mice by intratracheal injection. Subcutaneous administration of the compounds according to the invention at the concentration of 12 mg/kg, or of the carrier, was conducted on the mice 18 hours before inoculation of the bacterium, and repeated daily for 6 days. The general state of health of the mice was analysed once or twice a day throughout the duration of the experiment. Six days after infection, the mice were euthanised by carbon dioxide inhalation. Bronchoalveolar lavage fluid analysis (BALF) indicated a significant reduction in the number of neutrophils in the treated mice compared with those treated with the carrier only.

[2] = tested on: rat aorta rings; assay: Ex vivo assay of anti-angiogenic activity on rat aorta rings (VEGF-induced sprouting); assay type: cell-based; details: VEGF 30 ng/mL, compound 100 μM, counted after 6 days' incubation; VEGF alone 17 ± 4
Description: Ex Vivo Assays of Anti-Angiogenic Activity on Rat Aorta Rings
Thoracic aortas obtained from 5- to 10-week-old male rats were cut into rings measuring about 1 mm. The rings were placed on the base of a 24-well plate (positioning the luminal axis parallel to the base of the well), and incubated with a fibrin-polymerising solution. After 5 min, VEGF (30 ng/mL) was added to the wells in an appropriate culture medium in the presence or absence of the compounds according to the invention at the concentration of 100 μM. The medium was changed three times a week as from day 3. The angiogenic response was measured by counting the number of new vessels that sprouted over time (Table 1). The endothelial filaments were counted after 6 days' incubation.

[3] = tested on: chorioallantoic membrane (CAM); assay: In vivo assay on chorioallantoic membrane (CAM), VEGF165-induced neovascularisation; design: species or system hen; details: day 14, VEGF165 alone = 100
Description: In Vivo Assays on Chorioallantoic Membrane (CAM)
42 fertilised hens' eggs were disinfected with a 20% ethanol solution and incubated at a temperature of 37-38° C. and a humidity of 40-60% in a rotary egg incubator. The eggs were positioned horizontally and incubated for the next 11 days to promote embryo development.
On day 11, the position of the CAM was identified by candling for 36 eggs, the air chamber was removed, and slits made in the shell in order to position sterile paper filters saturated with the effectors at different concentrations (V=2.5 uL) on the CAM. On day 14, CAMs were photographed with a stereomicroscope (Carl Zeiss Vision GmbH). Quantitative analysis was conducted (count of vessels leading from the filter) by skeletonizing the images and using AngioTool64 0.6a software, and the percentage of neovascularisation at the various concentrations of effectors was determined (Table 2).

[4] = VEGF165 0.1 ug + compound 0.0001 ug on filter
[5] = VEGF165 0.1 ug + compound 0.001 ug on filter
[6] = VEGF165 0.1 ug + compound 0.01 ug on filter
[7] = VEGF165 0.1 ug + compound 0.1 ug on filter
[8] = VEGF165 0.1 ug + compound 1 ug on filter

Molecule | Macrophages (%) [1] | Neutrophils (%) [1] | Total cells (%) [1] | Endothelial filaments (standardised for the number of rings) [2] | Vascularisation (%) [3, 4] | Vascularisation (%) [3, 5] | Vascularisation (%) [3, 6] | Vascularisation (%) [3, 7] | Vascularisation (%) [3, 8]
CC(C)(C)c1cc(NC(=O)CCCN=C(N)N)c(SCCc2ccccc2)c(NC(=O)CCCN=C(N)N)c1 [IRI-N-19025, N,N′-(5-(tert-butyl)-2-(phenethylthio)-1,3-phenylene)bis(4-((diaminomethylene)amino)butanamide)] | −8 ± 5% | −55 ± 9% | −50 ± 10% | 1.9 ± 1.1 | – | – | – | – | –
CC(C)(C)c1cc(NC(=O)CCN=C(N)N)c(SCc2ccc3ccccc3c2)c(NC(=O)CCN=C(N)N)c1 [IRI-N-19004, N,N′-(5-(tert-butyl)-2-((naphthalen-2-ylmethyl)thio)-1,3-phenylene)bis(3-((diaminomethylene)amino)propanamide)] | −5 ± 4% | −58 ± 8% | −56 ± 8% | 1.2 ± 0.5 | 38% | 33% | 24% | 19% | 8%
N,N′-(2-(benzylthio)-5-(tert-butyl)-1,3-(phenylene)bis(3-((diaminomethylene)amino) propanamide) [IRI-N-19002] | −9 ± 4% | −60 ± 6% | −54 ± 9% | 1.4 ± 0.5 | 48% | 42% | 36% | 31% | 13%
CC(C)(C)c1cc(NC(=O)CCN=C(N)N)c(SCCc2ccccc2)c(NC(=O)CCN=C(N)N)c1 [IRI-N-19001, N,N′-(5-(tert-butyl)-2-(phenethylthio)-1,3-phenylene)bis(3-((diaminomethylene)amino)propanamide)] | −10 ± 3% | −61 ± 5% | −55 ± 12% | 1.0 ± 0.4 | 45% | 37% | 33% | 26% | 10%
